Earlier results as cited in EP4729553A1, “BLOCK POLYMER, AND COLORING MATERIAL DISPERSION AND INK COMPOSITION USING SAME” (Mikuni Shikiso Kabushiki Kaisha, priority 2023, dated 2024).

Settings: monomer, trade product data

Substance: ethoxylated o-phenylphenol acrylate [A-LEN10]
- LogP: 3.98
